Results taken from article PMC6614837 (Nucleic Acids Research, 2019).
Entries after “also recorded” stand apart in the source; their conditions may differ.

Assays:
[1] = tested on: P RNA; assay: Gel-based activity assay, bipartite pre-tRNA substrate, P RNA alone; type: biochemical, T. maritima; conditions: 100 mM AmOAc, 10 mM MgCl2
Procedure: For gel-based activity assays, reactions were prepared as described in the previous section (fluorescence activity assay), incubated for 1–15 min at 37–50°C, then loaded onto a denaturing 7 M urea–20% acrylamide gel in the case of the Mh substrate or 19% acrylamide (40% acrylamide/bisacrylamide 38.5:1.5) for the bipartite pre-tRNA substrate. The activity conditions for the gel reported in Figure 3A, to monitor the cleavage of the holoenzyme and P RNA, were under 100 mM AmOAc and 10 mM MgCl2. The gels (13 × 16 × 0.15 cm) were electrophoresed at 20 V/cm for 2–3 h. UV shadowing or ethidium bromide staining was used to visualize RNA cleavage. Detection of minihelix fluorescence was achieved without staining using a UV lamp with excitation at ∼254 nm.
Figure 3. The inhibitors purpurin and hematein bind to the holoenzyme. (A) Top. […] Bottom. […] (B) The relative affinities of the inhibitors for the P RNA or the holoenzyme differ. Binding sensorgrams obtained by biolayer interferometry (BLI). P RNA or RNase P holoenzyme was immobilized on super streptavidin (SSA) biosensors through a 5′-biotinylated RNA oligonucleotide complementary to a region on the P1 stem of P RNA (see Materials and Methods). […] In contrast, gentian violet binds not only to P RNA but also to the Mh substrate (Supplementary Figure S16). (C) Molecular Dynamics (MD) simulations of RNase P protein in complex with the validated inhibitors. In each panel, semitransparent spheres represent the geometric center, over a 200 ns trajectory, of the corresponding tested compound. The 5′-leader (yellow) is shown for reference purposes only; it was not included in the simulation. Sphere color coding indicates the starting and final positions in blue and red, respectively. […] Purpurin's starting conformation corresponds to that observed in the crystal structure in complex with the P protein (PDB code: 6MAX. See Figure 5).

[2] = tested on: P RNA; assay: Biolayer interferometry binding to immobilized P RNA; design: species or system T. maritima; conditions: BLI, P RNA on SSA biosensors via biotinylated oligonucleotide
Procedure: (§1) Real-time binding assays of the holoenzyme, P RNA, P protein, the substrate minihelix and the 5′-leader to individual compounds were performed by biolayer interferometry using an Octet RED96 system (ForteBio). For the holoenzyme or P RNA, a 5′ biotinylated RNA oligonucleotide with the sequence 5′biotin-CAUUCCAGACGAU was immobilized on Super Streptavidin (SSA) biosensors. Then, a modified P RNA or holoenzyme was added. The P RNA modification consisted of a sequence with part of the P1 stem sequence complementary to the biotinylated oligonucleotide (AUCGUCUGGA) (Supplementary Figure S23A). P1 is far from the active site or other regions involved in specific interactions (Supplementary Figure S23B) ([19]). The activity of this construct was indistinguishable from the wild-type holoenzyme. Alternatively, the holoenzyme was immobilized through the His-tagged P protein from T. maritima at 0.05 mg/ml (3.4 μM) on Ni-NTA biosensors. Control biosensors were used to subtract non-specific binding of compounds to the biosensor surface. All assay steps (immobilization, wash, baseline, association, and dissociation) were performed in 20 mM HEPES pH 7.4, 100 mM ammonium acetate, 10 mM MgCl2, 2.5% DMSO. The assays were performed on black bottom 96-well microplates (Greiner Bio-One 655209) in a total volume of 200 μl, at 30°C with orbital shaking at 1000 rpm. Experiments were controlled with the software Data Acquisition 8.2 (ForteBio, Inc.). Kinetic binding parameters were calculated using Data Analysis 8.2 (ForteBio, Inc.). After subtraction of reference biosensors, the binding curves were aligned to the X- and Y-axis and the association-dissociation inter-step curve in order to get a common baseline for the association and dissociation phases.
Figure 3. The inhibitors purpurin and hematein bind to the holoenzyme. (A) Top. […] Bottom. […] (B) The relative affinities of the inhibitors for the P RNA or the holoenzyme differ. Binding sensorgrams obtained by biolayer interferometry (BLI). […]

[3] = target: minihelix (Mh); assay: Biolayer interferometry binding to biotinylated minihelix substrate; conditions: BLI
Procedure: 3′-Biotinylated minihelix was purchased from Integrated DNA Technologies (IDT) (24-mer RNA sequence, 5′-[…]-3′-Biotin). The biotinylated minihelix was immobilized on Super Streptavidin (SSA) biosensors at a concentration of 10 μM. […] For the titration experiments, 10 μM of 3′-biotinylated minihelix was immobilized for 300 s on Super Streptavidin (SSA) biosensors, followed by a wash step of 100 s and association and dissociation steps of 200 s in the presence of 6 different concentrations of compound ranging from 500 to 15.6 μM. SSA biosensors with no minihelix were used to measure non-specific binding of compounds. All other parameters (buffer, instrument control, analysis) are as described above.
Supplementary Figure 16. Binding assays monitor the interaction of compounds with the minihelix (Mh). Gentian violet and methylene blue bind in a dose-dependent relationship to the artificial minihelix substrate. […]
interaction between the minihelix and (A) gentian violet (KD=8 µM ) and (B) methylene blue A 3′-biotinylated substrate minihelix at 10 µ M was immobilized on super streptavidin (SSA) biosensors for 300 s.
Supplementary Figure 17. pre-tRNA displaces bound purpurin in a dose-response […]
indicating a true competition between purpurin and pre-tRNA binding sites. […]

[4] = target: T1, P protein (Thermotoga maritima, UniProt Q9X1H4); assay: Binding hindrance of the 5′ RNA leader to the P protein (BLI); design: species or system T. maritima; conditions: compound 100 μM, 5′ RNA leader 5 μM
T1 construct: GST (cleaved yes); made in house; host or cells: E. coli BL21(DE3)pLysS
T1 sequence (Q9X1H4 1-117): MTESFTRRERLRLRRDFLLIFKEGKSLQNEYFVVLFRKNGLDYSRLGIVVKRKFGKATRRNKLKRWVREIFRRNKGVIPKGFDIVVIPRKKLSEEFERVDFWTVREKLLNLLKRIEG
Procedure: A 5′ RNA leader sequence with 10-bases 5′-GGAAAAAGAU-3′ was purchased from IDT and used at a concentration of 5 μM. This sequence is the same used to obtain the crystal structure of the RNase P holoenzyme ([19]). The His-tagged P protein was immobilized on Ni-NTA biosensors at 0.05 mg/ml (3.4 μM). […] The steps performed on the assay and their periods were: P protein immobilization (400 s), wash (100 s), baseline […] (1000 rpm), compound association (800 s), compound dissociation (200 s) (500 rpm), baseline (100 s), 5′ leader association (200 s), 5′ leader dissociation (200 s) (1000 rpm). The assay was performed at 30°C. The compounds were used at 100 μM throughout. All assay steps were performed in 20 mM HEPES pH 7.4, 100 mM ammonium acetate, 10 mM MgCl2, 5% DMSO.
5 ′ RNA leader. (A) Experimental design of 5′ RNA leader binding hindrance experiments. Figures B-F are based on the analysis region depicted in panel A, where association and dissociation of the 5′ RNA leader to the P protein (TmP) is measured over time. P protein at 3.5 µM was immobilized on Ni-NTA biosensors for 300 s, while compounds were assayed at 100 µM and the […]
binding, in contrast with hematein (E) and purpurin (F).
(1 picture or pasted object on this page, not shown here)

[5] = target: T2, RNase P holoenzyme (Thermotoga maritima, UniProt Q9X1H4); assay: Displacement of pre-tRNA from the holoenzyme (BLI); type: binding, T. maritima; conditions: holoenzyme on Ni-NTA biosensors, compound 0–400 μM, then pre-tRNA
T2 construct: GST (cleaved yes); made in house; host or cells: E. coli BL21(DE3)pLysS
T2 sequence (Q9X1H4 1-117): T1 sequence (Q9X1H4 1-117)
Procedure: as §1
Figure 4. Characterization of the inhibition of T. maritima RNase P by purpurin. (A) Best global fit for inhibition of RNase P in the presence of varying concentrations of fluorescent Mh substrate. […] Symbols represent the mean ± standard error as determined from three independent experiments at each concentration. See also Supplementary Figure S18. […] Binding sensorgrams obtained by biolayer interferometry (BLI). RNase P holoenzyme at 400 nM was immobilized on Ni-NTA. […] Binding sensorgrams obtained by biolayer interferometry (BLI). RNase P holoenzyme was immobilized on Ni-NTA biosensors, incubated with purpurin at varying concentrations (0–400 μM), and then the association and dissociation pre-tRNA was monitored. […] See also Supplementary Figure S17.

[6] = target: T3, RNase P holoenzyme from Thermotoga maritima (Thermotoga maritima, UniProt Q9X1H4); assay: Real-time fluorescence-based (FRET) RNase P activity assay with minihelix (Mh) substrate; type: biochemical
T3 construct: made in house
T3 sequence (Q9X1H4 1-117): T1 sequence (Q9X1H4 1-117)
Procedure: The reconstitution of the RNase P holoenzyme was performed as described in ([40],[19]). This protocol produces a homogeneous and functional ribozyme that can be crystallized by mixing P RNA and P protein in a 1:1.1 molar ratio in 1× TH buffer (33 mM Tris–HCl, 66 mM HEPES, pH 7.4) and 400 mM ammonium acetate (AmOAc). The mixture was heated to 95°C for 2 min in a water bath, then chilled on ice for 2 min, after which MgCl2 was added to a final concentration of 100 mM. […] This higher concentration was used in all experiments described herein. The holoenzyme was further incubated at 50°C for 10 min and 37°C for 40 min. The final concentration of holoenzyme was 333 nM (35.6 μg/ml of P RNA and 4.7 μg/ml of P protein).
The minihelix (Mh) substrate (Figure 1A) was adopted from a previously characterized RNase P substrate, pMini3bpUG ([32],[33]) and coupled to either Black Hole Quencher 1 (BHQ1) or Black Hole Quencher 2 (BHQ2) at the 5′-end and Alexa Fluor 488 at the 3′-end. This probe was purchased either from Sigma-Aldrich or Integrated DNA Technologies (IDT). A requested scale of […] yielded between 6.3 and 20 nmol (57.5 to 181 μg, enough for 1300–4000 reactions depending on the experimental substrate concentration). Before use, the minihelix was diluted from a 100 μM stock (dissolved in water) to 3.6 μM in activity buffer H (33 mM Tris–HCl, 66 mM HEPES, pH 7.4, 400 mM AmOAc and 100 mM MgCl2).
Reactions were performed in a total volume of 20 μl. Pipetting was done by hand using multichannel pipettes. First, an 18 μl reaction mixture containing 16.5 μl of activity buffer (H for Mh or L supplemented with 10% PEG 200 for bipartite pre-tRNA) and 270 nM (Mh) or 135 nM (bipartite pre-tRNA) (1.5 or 0.7 μl of the 3.6 μM stock) of the fluorescent substrate probe was pre-incubated on ice for at least 5 m in a black polystyrene 384-well microtiter microplate with a flat transparent bottom (Corning ref 3540). The holoenzyme was then added at a final concentration of 33 nM (2 μl of a 333 nM stock) in 1× TH buffer and mixed. Kinetic activity was monitored in a Synergy MX Multimode Detector (BioTek) at 37°C with rapid agitation. At least 20 readings were taken per well every 15 s. The probe was excited at 485 nm, and its emission was monitored at 535 nm with an integration time of 1 s. From the plots of relative fluorescent units (RFU) versus time, linear regression was used to determine the slopes in the linear portion of the curves, using at least 12 data points to obtain initial velocities. Non-linear fitting to obtain the Michaelis–Menten parameters was performed using GraphPad Prism® 6.01 software.
Supplementary Figure 3. FRET assays of RNase P with the fluorescent substrate are reproducible. (A) Representative plots of kinetic assays performed in a single run. The standard assay (SA), (+), was performed at 37° C in a total volume of 20 µL and contained RNase P holoenzyme at 33 nM, substrate minihelix (Mh) at 270 nM, 10% DMSO and activity buffer (AB).
The negative control assay (-) contained 100 mM CaCl2 in place of MgCl2. Ten to twelve wells were monitored simultaneously in a typical assay. (B) Zoomed view of the linear region of the kinetic assays shown in panel A. Fluorescence readings were performed every 15-20 seconds.
Linear regression calculations were done using the GraphPad Prism 7 software. (C) The coefficient Z’-factor (1) was used as an indicator of reproducibility and was calculated based on the relative fluorescence units (RFU) in the plateau phase (taken at 20 minutes). The Z’-factor has a […]
presented in this work were either measured in triplicate or confirmed in subsequent assays. (D) […]
assay is robust. The IC50 values reported in Figures 1C and 2 were calculated according to this kinetic parameter. There is a negative drift in fluorescence in the case of the negative control.
However, it should be noted that the mean value of it (-279) is much smaller than the signal of the […]
positive control (3397). […]

[7] = tested on: RNase P from E. coli; design: method as in PMID 24097434; conditions: cited from earlier work
[8] = target: T4, RNase P protein (TmP, P protein) (Thermotoga maritima, UniProt Q9X1H4 1-117); assay: BLI; conditions: BLI (Octet RED96): 20 mM HEPES pH 7.4, 100 mM ammonium acetate, 10 mM MgCl2, 2.5-5% DMSO, 30 C; P protein:P RNA in 33 mM Tris, 66.6 mM HEPES, 200 mM ammonium …
T4 sequence: T1 sequence (Q9X1H4 1-117)

CN(C)c1ccc([C+](c2ccc(N(C)C)cc2)c2ccc(N(C)C)cc2)cc1.[Cl-] [Gentian violet, tris(4-(dimethylamino)phenyl)methylium chloride, reference compound]
Inhibition of the P RNA reaction [1]: inhibits the reaction via P RNA | Binding to P RNA [2]: binds more strongly to it | Kd ([3]; 3′-biotinylated minihelix 10 μM on SSA biosensors): 8 µM | Binding to the minihelix substrate ([3]; initial screening at 1 mM and titration): binding signal; also recorded: binds to the biotinylated minihelix substrate in the micromolar range | Hindrance of 5′ RNA leader binding to the P protein [4]: did not interfere with RNA leader | Hindrance of 5′ RNA leader binding to the P protein ([4]; listed as gentian violet): do not impede the leader binding | Dose–response displacement of pre-tRNA [5]: No

Mh: 24-nucleotide minihelix RNase P model substrate with 5′ Black Hole Quencher and 3′ Alexa Fluor 488 (GAUCUGAAUGCGGAAACGCGCCAC; 5' BHQ quencher, 3' Alexa Fluor 488, further chemistry not given here)
kcat ([6]; Michaelis–Menten fit): 6.7 min⁻¹ | Km ([6]; holoenzyme 11 nM, Michaelis-Menten fit): 1300 nM | kobs (previously reported) [7]: 0.86 min⁻¹ | Kd ([7]; read-out: KD (previously reported)): 2800 nM

P RNA
Kd [8]: 0.5 nM
